# Test results from publication PMC8373216, “Development and Preclinical Evaluation of New Inhaled Lipoglycopeptides for the Treatment of Persistent Pulmonary Methicillin-Resistant Staphylococcus aureus Infections” (Antimicrobial Agents and Chemotherapy, 2021).
# Read-outs that look alike come from different tables or passages of the source.
# Key:
# Streptococcus pyogenes = assay: Expanded panel broth microdilution MIC/MBC; format: cell-based
# [1] = test system: Staphylococcus lugdunensis; assay: Expanded panel broth microdilution MIC; format: cell-based
# Streptococcus pneumoniae = assay: Expanded panel broth microdilution MIC/MBC; format: cell-based; conditions: for MIC:MBC: MBC on one organism
# MSSA ATCC 29213 = assay: In-house broth microdilution MIC screening; format: cell-based; conditions: Staphylococcus aureus, read-out: MIC Value, MSSA ATCC 29213
# [2] = test system: MRSA (ATCC BAA 1556; USA300); assay: Acute pulmonary MRSA infection in neutropenic rats, nebulized nose-only inhalation; format: in vivo, Staphylococcus aureus; conditions: inhaled at 24 and 32 h postinfection, lungs at 48 h
# Method: Rats were rendered neutropenic with intraperitoneal (i.p.) cyclophosphamide on day −4 (150 mg/kg) and day −1 (100 mg/kg) relative to the challenge. On day 0 at 0 h, rats were challenged with MRSA via intranasal instillation at a target titer of 8.0 to 8.3 log10 CFU. At 24 and 32 h postchallenge, rats were loaded into a 12-port inhalation dosing tower, where they received nebulized drug or vehicle control treatments by nose-only inhalation. Animals were euthanized at 48 h postinfection for enumeration of lung MRSA titer. MRSA lung titer of test article treatments versus control is plotted for three separate experiments. […] Statistics are based on the Kolmogorov-Smirnov test for drug treatment versus control (RV94, P = 0.01). LOD = 2.1 log10 CFU/lungset.
# Male Sprague Dawley rats (Envigo, Indianapolis, IN) weighing between 225 and 250 g were used in these studies. Rats were housed and acclimated to the study facility as described in the PK methods section. Rats were rendered neutropenic through a series of intraperitoneal cyclophosphamide (Sigma-Aldrich) injections on day −4 (150 mg/kg) and day −1 (100 mg/kg) relative to the challenge. On day 0 at 0 h, rats were challenged with MRSA ATCC BAA 1556 via intranasal instillation at a target titer of 8.0 to 8.3 log10 CFU using optical density and back-counting inoculum CFU. To prepare the inoculum, a frozen aliquot of the organism stored at −80°C was thawed, transferred into TSB, and incubated at 37°C while shaking for 16 h. Cultures were then centrifuged at 2,000 × g for 5 min, and the resulting pellet was resuspended in PBS and equilibrated. For the challenge procedure, rats were first anesthetized through use of 2 to 5% isoflurane in 100% oxygen, then restrained with a scruff grip and a total of 200 μl of inoculum was quickly introduced to one nare. The rat was held in a vertical position until the challenge was fully inhaled. Rats were monitored following challenge to ensure that normal respiration was achieved and then returned to their cage. […] At necropsy, whole lungs were aseptically removed and lung weights were recorded. […]
# Enterococcus faecalis = assay: Expanded panel broth microdilution MIC/MBC; format: cell-based
# Clostridioides difficile = assay: Expanded panel broth microdilution MIC; format: cell-based
# [3] = Single-dose nebulized nose-only inhalation PK in healthy rats; format: in vivo, rat
# How it was run: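 Ten or eleven rats per cohort dosed once by nebulized nose-only inhalation, delivered dose estimated from 5 min aerosol filter sampling. Lungs and plasma collected from immediately postdose (~30 min) to 168 h; drug quantified by LC-MS/MS after protein precipitation. PK by noncompartmental analysis, linear up/log down.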
# [4] = test system: MRSA ATCC BAA 1556 (USA300) biofilm; assay: MRSA biofilm killing, MBEC assay system, TSB with 1% human plasma; conditions: for Concentrations with statistically significant reduction versus control biofilm: two-way ANOVA, Bonferroni
# [5] = test system: Staphylococcus haemolyticus; assay: Expanded panel broth microdilution MIC; format: cell-based
# Streptococcus mitis = assay: Expanded panel broth microdilution MIC/MBC; format: cell-based; conditions: for MIC:MBC: MBC on one organism; for MIC: Streptococcus mitis
# Staphylococcus hominis = assay: Expanded panel broth microdilution MIC; format: cell-based
# [6] = E. faecalis VSE, MBC on one organism
# [7] = E. faecalis VanA VRE, 1 isolate
# [8] = male, Sprague Dawley, rat, in vivo, 120 h
# [9] = male, Sprague Dawley, rat, in vivo, inhaled or intranasal
# [10] = single nebulized nose-only inhaled dose, healthy rats
smiles,measurement,setting,value
CCCCCCCCCCNC(=O)CNC1(C)CC(OC2C(Oc3c4cc5cc3Oc3ccc(cc3Cl)C(O)C3NC(=O)C(NC(=O)C5NC(=O)C(CC(N)=O)NC(=O)C(NC(=O)C(CC(C)C)NC)C(O)c5ccc(c(Cl)c5)O4)c4ccc(O)c(c4)-c4c(O)cc(O)cc4C(C(=O)O)NC3=O)OC(CO)C(O)C2O)OC(C)C1O (centres unmarked) [RV94],MIC:MBC,Streptococcus pyogenes; S. pyogenes ermR,1
same,MIC,"Streptococcus pyogenes; Streptococcus pyogenes, ATCC19615, S. pyogenes ATCC 19615, read-out: MIC",0.015 µg/mL
same,MIC,"Streptococcus pyogenes; Streptococcus pyogenes, S. pyogenes MMX 946, ermR, read-out: MIC",0.008 µg/mL
same,MIC,"Streptococcus pyogenes; Streptococcus pyogenes, S. pyogenes MMX 8778, read-out: MIC",0.008 µg/mL
same,MIC,"Streptococcus pyogenes; Streptococcus pyogenes, S. pyogenes ermR, 1 isolate, read-out: MIC",0.008 µg/mL
same,MIC,"Streptococcus pyogenes; Streptococcus pyogenes, S. pyogenes, 2 isolates, read-out: MIC (median)",0.012 µg/mL
same,MIC,"[1]; S. lugdunensis, 1 isolate",0.015 µg/mL
same,MIC,"[1]; Staphylococcus lugdunensis, S. lugdunensis MMX 8724, read-out: MIC",0.015 µg/mL
same,MIC:MBC,Streptococcus pneumoniae; S. pneumoniae PISP,4
same,MIC,"Streptococcus pneumoniae; S. pneumoniae PRSP, 1 isolate",0.008 µg/mL
same,MIC,"Streptococcus pneumoniae; Streptococcus pneumoniae, ATCC49619, S. pneumoniae ATCC 49619, PISP, read-out: MIC",0.008 µg/mL
same,MIC,"Streptococcus pneumoniae; Streptococcus pneumoniae, S. pneumoniae MMX 432, PRSP, read-out: MIC",0.008 µg/mL
same,MIC,"Streptococcus pneumoniae; Streptococcus pneumoniae, S. pneumoniae MMX 747, PISP, read-out: MIC",0.004 µg/mL
same,MIC,"Streptococcus pneumoniae; Streptococcus pneumoniae, S. pneumoniae PISP, 2 isolates, read-out: MIC (median)",0.006 µg/mL
same,MIC,MSSA ATCC 29213; broth microdilution,0.031 µg/mL
same,Average reduction in lung MRSA titer versus vehicle control,"[2]; RV40 14.4 mg/kg, RV94 18.8 mg/kg delivered",1.0 log10 CFU
same,MIC:MBC,Enterococcus faecalis; [6],>8
same,MIC:MBC,Enterococcus faecalis; E. faecalis VanA VRE,>8
same,MIC,Enterococcus faecalis; [7],0.03 µg/mL
same,MIC,"Enterococcus faecalis; Enterococcus faecalis, ATCC29212, E. faecalis ATCC 29212, VSE, read-out: MIC",0.03 µg/mL
same,MIC,"Enterococcus faecalis; Enterococcus faecalis, E. faecalis MMX 1086, VanA VRE, read-out: MIC",0.03 µg/mL
same,MIC,"Enterococcus faecalis; Enterococcus faecalis, E. faecalis MMX 4176, VSE, read-out: MIC",0.03 µg/mL
same,MIC,"Enterococcus faecalis; Enterococcus faecalis, E. faecalis VSE, 2 isolates, read-out: MIC (median)",0.03 µg/mL
same,MIC,"Clostridioides difficile; ATCCBAA1805, C. difficile ATCC BAA-1805, ribo 027, read-out: MIC",0.015 µg/mL
same,MIC,"Clostridioides difficile; ATCCBAA1870, C. difficile ATCC BAA-1870, NAP1;ribo 027, read-out: MIC",0.06 µg/mL
same,MIC,"Clostridioides difficile; C. difficile ATTC 700057, toxAB-, read-out: MIC",0.015 µg/mL
same,MIC,"Clostridioides difficile; C. difficile NAP1;ribo 027, 1 isolate, read-out: MIC",0.06 µg/mL
same,MIC,"Clostridioides difficile; C. difficile ribo 027, 1 isolate, read-out: MIC",0.015 µg/mL
same,MIC,"Clostridioides difficile; C. difficile toxAB-, 1 isolate, read-out: MIC",0.015 µg/mL
same,Pulmonary dose,"[3]; male, Sprague Dawley, rat, in vivo",1.10 mg/kg
same,Drug lung level at 120 h,[3]; [8],45%
same,Primary hydrolysis byproduct lung level at 120 h,[3]; [8],0.1%
same,Kp,[3]; [9],1870
same,Lung AUC0-∞,[3]; [9],40671 µg·h/g
same,Lung Cmax,[3]; [9],262 µg/g
same,Lung t1/2,[3]; [9],108 h
same,Plasma Cmax,[3]; [9],140 ng/mL
same,Hydrolysis product RV101 relative to parent concentration at lung Cmax,"[3]; male, Sprague Dawley, rat, in vivo, inhaled or intranasal, 120 h",0.1%
same,"Biofilm activity, fold more potent than vancomycin at the same dose","[4]; MBEC, 16 μg/ml",2 fold
same,Concentrations with statistically significant reduction versus control biofilm,[4]; MBEC,≥ 2 µg/mL
same,MIC,"[5]; ATCC29970, S. haemolyticus ATCC 29970, read-out: MIC",0.06 µg/mL
same,MIC,"[5]; S. haemolyticus, 1 isolate, read-out: MIC",0.06 µg/mL
same,MIC:MBC,Streptococcus mitis; S. mitis MGS,1
same,MIC,"Streptococcus mitis; ATCC49456, S. mitis (MGS) ATCC 49456, read-out: MIC",0.008 µg/mL
same,MIC,"Streptococcus mitis; S. mitis (MGS) MMX 5798, read-out: MIC",0.008 µg/mL
same,MIC,"Streptococcus mitis; S. mitis MGS, 2 isolates, read-out: MIC (median)",0.008 µg/mL
same,MIC,"Staphylococcus hominis; ATCC27844, S. hominis ATCC 27844, read-out: MIC",0.03 µg/mL
same,MIC,"Staphylococcus hominis; S. hominis, 1 isolate, read-out: MIC",0.03 µg/mL
"CN[C@H](CC(C)C)C(=O)N[C@H]1C(=O)N[C@@H](CC(N)=O)C(=O)N[C@H]2C(=O)N[C@H]3C(=O)N[C@H](C(=O)N[C@H](C(=O)O)c4cc(O)cc(O)c4-c4cc3ccc4O)[C@H](O)c3ccc(c(Cl)c3)Oc3cc2cc(c3O[C@@H]2O[C@H](CO)[C@@H](O)[C@H](O)[C@H]2O[C@H]2C[C@](C)(N)[C@H](O)[C@H](C)O2)Oc2ccc(cc2Cl)[C@H]1O [Vancomycin, vancomycin]",MIC,"Streptococcus pyogenes; S. pyogenes MMX 946, ermR",0.25 µg/mL
same,MIC:MBC,Streptococcus pyogenes; S. pyogenes ermR,1
same,MIC,Streptococcus pyogenes; Streptococcus pyogenes,0.25 µg/mL
same,MIC,"Streptococcus pyogenes; Streptococcus pyogenes, ATCC19615",0.25 µg/mL
same,MIC,"Streptococcus pyogenes; Streptococcus pyogenes, read-out: MIC (median)",0.25 µg/mL
same,MIC,"[1]; S. lugdunensis, 1 isolate",0.25 µg/mL
same,MIC,[1]; Staphylococcus lugdunensis,0.25 µg/mL
same,MIC:MBC,Streptococcus pneumoniae; S. pneumoniae PISP,8
same,MIC,"Streptococcus pneumoniae; S. pneumoniae PRSP, 1 isolate",0.25 µg/mL
same,MIC,Streptococcus pneumoniae; Streptococcus pneumoniae,0.12 µg/mL
same,MIC,"Streptococcus pneumoniae; Streptococcus pneumoniae, ATCC49619",1 µg/mL
same,MIC,"Streptococcus pneumoniae; Streptococcus pneumoniae, PRSP",0.25 µg/mL
same,MIC,"Streptococcus pneumoniae; Streptococcus pneumoniae, read-out: MIC (median)",0.6 µg/mL
same,MIC,MSSA ATCC 29213,1 µg/mL
same,Average increase in lung MRSA titer versus inhaled vehicle control,[2]; 49.8 mg/kg delivered,0.1 log10 CFU
same,MIC:MBC,Enterococcus faecalis; [6],>8
same,MIC,Enterococcus faecalis; [7],128 µg/mL
same,MIC,Enterococcus faecalis; Enterococcus faecalis,1 µg/mL
same,MIC,"Enterococcus faecalis; Enterococcus faecalis, ATCC29212",2 µg/mL
same,MIC,"Enterococcus faecalis; Enterococcus faecalis, VRE",128 µg/mL
same,MIC,"Enterococcus faecalis; Enterococcus faecalis, read-out: MIC (median)",1.5 µg/mL
same,MIC,"Clostridioides difficile; ATCCBAA1805, C. difficile ATCC BAA-1805, ribo 027",0.5 µg/mL
same,MIC,"Clostridioides difficile; ATCCBAA1870, C. difficile ATCC BAA-1870, NAP1;ribo 027",1 µg/mL
same,MIC,"Clostridioides difficile; C. difficile ATTC 700057, toxAB-",0.25 µg/mL
same,MIC,"Clostridioides difficile; C. difficile NAP1;ribo 027, 1 isolate",1 µg/mL
same,MIC,"Clostridioides difficile; C. difficile ribo 027, 1 isolate",0.5 µg/mL
same,MIC,"Clostridioides difficile; C. difficile toxAB-, 1 isolate",0.25 µg/mL
same,half-life,"[3]; male, Sprague Dawley, rat, in vivo, inhaled or intranasal, single nebulized nose-only inhaled dose, healthy rats, noncompartmental analysis, read-out: Lung t1/2 (converted)",23 h
same,Kp,"[3]; male, Sprague Dawley, rat, in vivo, inhaled or intranasal, single nebulized nose-only inhaled dose, healthy rats, read-out: Lung: Plasma Cmax ratio",4
same,Cmax,"[3]; male, Sprague Dawley, rat, in vivo, inhaled or intranasal, single nebulized nose-only inhaled dose, healthy rats, read-out: Plasma Cmax",8000 ng/mL
same,Pulmonary dose,"[3]; measured directly in lung tissue, single nebulized nose-only inhaled dose, healthy rats",0.20 mg/kg
same,Lung AUC0-∞,[3]; [10],671 µg·h/g
same,Lung Cmax,[3]; [10],31 µg/g
same,Maximum reduction in MRSA biofilm titer relative to control,"[4]; MBEC, 512 μg/ml",1.1 log10 CFU/peg
same,Concentrations with statistically significant reduction versus control biofilm,[4]; MBEC,≥ 16 µg/mL
same,Reduction in MRSA biofilm titer,"[4]; plasma-supplemented MBEC assay, dose not stated",~1 log10 CFU/peg
same,MIC,[5],1 µg/mL
same,MIC,[5]; ATCC29970,1 µg/mL
same,MIC:MBC,Streptococcus mitis; S. mitis MGS,1
same,MIC,Streptococcus mitis,0.25 µg/mL
same,MIC,Streptococcus mitis; ATCC49456,0.25 µg/mL
same,MIC,Streptococcus mitis; read-out: MIC (median),0.25 µg/mL
same,MIC,Staphylococcus hominis,0.5 µg/mL
same,MIC,Staphylococcus hominis; ATCC27844,0.5 µg/mL
